PubChem BioAssay AID200 (DTP/NCI, 2004)
Several values for one entry are separate records, joined by “and”; a condition that tells them apart may be missing. Equal entries are not always repeated. Toxic doses and inconclusive results are not listed. How the source made its calls: active means survival T/C of 150% or more; inactive means T/C below 125% in these data.

Tested on: B6C3F1 mice, B16 melanoma ip, median survival T/C
Test: NCI In Vivo Anticancer Drug Screen. Data for tumor model B16 Melanoma (intraperitoneal) in B6C3F1 mice
Settings: endpoint: median survival time, higher = longer survival
In short: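 Transplantable tumor in mice; treated vs vehicle control groups; survival or tumor size measured; value = T/C ratio.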

[1] = dose: 100.0 mg/kg/injection, schedule: Q01DX009 (ip), vehicle: saline with Tween-80
[2] = dose: 200.0 mg/kg/injection, schedule: Q01DX009 (ip), vehicle: saline with Tween-80
[3] = dose: 400.0 mg/kg/injection, schedule: Q01DX009 (ip), vehicle: saline with Tween-80
[4] = dose: 12.5 mg/kg/injection, schedule: Q01DX009 (ip), vehicle: saline with Tween-80
[5] = dose: 25.0 mg/kg/injection, schedule: Q01DX009 (ip), vehicle: saline with Tween-80
[6] = dose: 50.0 mg/kg/injection, schedule: Q01DX009 (ip), vehicle: saline with Tween-80
[7] = dose: 50.0 mg/kg/injection, schedule: Q01DX009 (ip), vehicle: Klucel (hydroxypropylcellulose) (HPC)
[8] = dose: 100.0 mg/kg/injection, schedule: Q01DX009 (ip), vehicle: Klucel (hydroxypropylcellulose) (HPC)
[9] = dose: 6.25 mg/kg/injection, schedule: Q01DX009 (ip), vehicle: saline with Tween-80

Measured: T/C

CO[C@H](/C(C)=C/C=C/C(C)=C/c1coc(C)n1)[C@H](C)[C@H]1C[C@@H](O)[C@@]2(C)O[C@H]2/C=C/[C@@H](C)[C@@H]2C[C@@H](CC(=O)O2)C[C@H]2O[C@@H]2C(=O)O1
active: dose: 0.1 mg/kg/injection, schedule: Q01DX009 (sc), vehicle: Klucel (hydroxypropylcellulose) (HPC) 154 % of control
inactive: dose: 0.01 mg/kg/injection, schedule: Q01DX009 (ip), vehicle: Klucel (hydroxypropylcellulose) (HPC) 118 % of control and 98 % of control and 102 % of control | dose: 0.01 mg/kg/injection, schedule: Q01DX009 (ip), vehicle: other 94 % of control and 106 % of control | dose: 0.03 mg/kg/injection, schedule: Q01DX009 (ip), vehicle: Klucel (hydroxypropylcellulose) (HPC) 111 % of control and 112 % of control and 97 % of control | dose: 0.03 mg/kg/injection, schedule: Q01DX009 (ip), vehicle: other 110 % of control | dose: 0.4 mg/kg/injection, schedule: Q01DX009 (sc), vehicle: Klucel (hydroxypropylcellulose) (HPC) 117 % of control

CC(C)C1OC(=O)/C=C/C=C/C=C/C=C/C=C/CC(O)C(C)C(O)CC(O)CC(O)CC(O)CC(O)CC(O)CC(O)/C=C/C1C (stereo not given)
inactive: dose: 1.56 mg/kg/injection, schedule: Q01DX009 (ip), vehicle: saline 101 % of control | dose: 3.12 mg/kg/injection, schedule: Q01DX009 (ip), vehicle: saline 100 % of control | dose: 6.25 mg/kg/injection, schedule: Q01DX009 (ip), vehicle: saline 102 % of control

CCOC(=O)c1c(C)c(C(=O)OCC)n(C)c1C=O
inactive: [1] 95 % of control | [2] 94 % of control | [3] 92 % of control

O=C(Nc1nncs1)c1ccncc1
inactive: [4] 108 % of control | [5] 102 % of control | [6] 92 % of control

C=C1COC(O)(C2OCOC(C3CC(=O)NC(=O)C3)C2O)C1C (stereo not given)
inactive: dose: 4.0 micrograms/kg/injection, schedule: Q01DX009 (ip), vehicle: water 94 % of control | dose: 8.0 micrograms/kg/injection, schedule: Q01DX009 (ip), vehicle: water 111 % of control and 113 % of control | dose: 16.0 micrograms/kg/injection, schedule: Q01DX009 (ip), vehicle: water 109 % of control | dose: 32.0 micrograms/kg/injection, schedule: Q01DX009 (ip), vehicle: water 115 % of control

NC(CSSCC(N)C(=O)O)C(=O)O (stereo not given)
inactive: [1] 101 % of control | [2] 103 % of control | [3] 117 % of control | dose: 800.0 mg/kg/injection, schedule: Q01DX009 (ip), vehicle: saline with Tween-80 102 % of control

O=C(Cl)c1ccccc1S(=O)(=O)N(CCOc1ccccc1)c1ccccc1
inactive: [7] 90 % of control | [8] 94 % of control | dose: 200.0 mg/kg/injection, schedule: Q01DX009 (ip), vehicle: Klucel (hydroxypropylcellulose) (HPC) 90 % of control

Oc1ccc(CCl)c2cccnc12
inactive: dose: 12.0 mg/kg/injection, schedule: Q01DX009 (ip), vehicle: saline 102 % of control | dose: 12.5 mg/kg/injection, schedule: Q01DX009 (ip), vehicle: saline 100 % of control

CC(=O)c1ccc(C)cc1C
inactive: [5] 105 % of control | [6] 92 % of control | [1] 98 % of control

Nc1nc(Cc2ccccc2)c(CCCNc2ccccc2)c(=O)[nH]1
inactive: [9] 101 % of control | [4] 109 % of control | [5] 92 % of control | [6] 86 % of control

N#C[Se-].c1ccc([Te+](c2ccccc2)c2ccccc2)cc1
inactive: dose: 1.56 mg/kg/injection, schedule: Q01DX009 (ip), vehicle: Klucel (hydroxypropylcellulose) (HPC) 92 % of control | dose: 3.12 mg/kg/injection, schedule: Q01DX009 (ip), vehicle: Klucel (hydroxypropylcellulose) (HPC) 97 % of control | dose: 6.25 mg/kg/injection, schedule: Q01DX009 (ip), vehicle: Klucel (hydroxypropylcellulose) (HPC) 96 % of control | dose: 12.5 mg/kg/injection, schedule: Q01DX009 (ip), vehicle: Klucel (hydroxypropylcellulose) (HPC) 96 % of control

Nc1ncnc2c1ncn2C1OC(CO)CC1O (stereo not given)
inactive: dose: 37.5 mg/kg/injection, schedule: Q01DX009 (ip), vehicle: Klucel (hydroxypropylcellulose) (HPC) 121 % of control | dose: 75.0 mg/kg/injection, schedule: Q01DX009 (ip), vehicle: Klucel (hydroxypropylcellulose) (HPC) 123 % of control

Cc1ccc2c(c1)N=C(Nc1ccccc1)N=S2(C)=O (stereo not given)
inactive: [9] 101 % of control | [4] 87 % of control | [5] 102 % of control | [6] 96 % of control | [1] 87 % of control | [2] 90 % of control

COc1cc2c(c3c1c(=O)c1cccc(F)c1n3C)C=CC(C)(C)O2
inactive: dose: 25.0 mg/kg/injection, schedule: Q01DX009 (ip), vehicle: Klucel (hydroxypropylcellulose) (HPC) 109 % of control | [7] 119 % of control | [8] 88 % of control
